Measured values taken from publication PMC11676982, “Heterotropic Activation of Cytochrome P450 3A4 by Perillyl Alcohol” (Pharmaceutics, 2024).

Legend:
[1] = tested on: CYP isoforms (CYP1A2, CYP2A6, CYP2B6, CYP2C8, CYP2C9, CYP2C19, CYP2D6, CYP2E1, and CYP3A4); test: Direct CYP inhibition assay in pooled HLMs, nine CYP isoforms (summary statement); conditions: up to 50 μM
CYP2A6 [2] = molecular target: T1, CYP2A6 (Homo sapiens, UniProt P11509); test: Direct CYP inhibition assay in pooled HLMs, CYP2A6 (coumarin); type: in vitro ADME; conditions: pooled HLMs 0.2 mg/mL; substrate coumarin 5 μM; 10 min; 95% CI in parentheses; read-out: IC50 against CYP2A6
T1 sequence (P11509 1-494): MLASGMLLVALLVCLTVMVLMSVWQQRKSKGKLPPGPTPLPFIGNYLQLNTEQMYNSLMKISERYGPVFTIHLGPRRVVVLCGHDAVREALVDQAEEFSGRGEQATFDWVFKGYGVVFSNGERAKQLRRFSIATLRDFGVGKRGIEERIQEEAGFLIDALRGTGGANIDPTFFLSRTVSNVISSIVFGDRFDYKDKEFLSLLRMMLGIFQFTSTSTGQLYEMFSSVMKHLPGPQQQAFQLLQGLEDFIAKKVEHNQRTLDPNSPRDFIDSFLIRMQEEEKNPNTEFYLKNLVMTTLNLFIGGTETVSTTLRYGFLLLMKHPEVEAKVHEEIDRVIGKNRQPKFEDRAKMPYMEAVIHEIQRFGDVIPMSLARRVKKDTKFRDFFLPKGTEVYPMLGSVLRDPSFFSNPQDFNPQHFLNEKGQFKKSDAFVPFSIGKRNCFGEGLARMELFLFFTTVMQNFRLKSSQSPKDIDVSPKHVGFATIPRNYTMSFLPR

CYP2B6 [3] = molecular target: T2, CYP2B6 (Homo sapiens, UniProt P20813); test: Direct CYP inhibition assay in pooled HLMs, CYP2B6 (bupropion); conditions: read-out: IC50 against CYP2B6; pooled HLMs 0.2 mg/mL; substrate bupropion 50 μM; 10 min; 95% CI in parentheses
T2 sequence (P20813 1-491): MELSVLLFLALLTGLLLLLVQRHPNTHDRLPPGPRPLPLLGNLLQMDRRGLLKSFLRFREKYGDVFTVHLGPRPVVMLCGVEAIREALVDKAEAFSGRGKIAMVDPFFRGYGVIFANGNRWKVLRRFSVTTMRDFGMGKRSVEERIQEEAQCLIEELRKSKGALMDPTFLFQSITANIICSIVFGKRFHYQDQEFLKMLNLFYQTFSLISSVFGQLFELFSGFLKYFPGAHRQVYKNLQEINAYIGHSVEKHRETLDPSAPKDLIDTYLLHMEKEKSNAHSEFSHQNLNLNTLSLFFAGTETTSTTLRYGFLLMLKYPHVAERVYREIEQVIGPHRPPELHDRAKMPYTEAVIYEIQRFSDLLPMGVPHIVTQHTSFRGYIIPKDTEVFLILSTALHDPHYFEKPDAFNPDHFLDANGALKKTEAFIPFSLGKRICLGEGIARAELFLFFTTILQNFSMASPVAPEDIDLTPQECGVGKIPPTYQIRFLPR

CYP2C19 = CYP2C19 (Homo sapiens, UniProt P33261); test: Direct CYP inhibition assay in pooled HLMs, CYP2C19 (S-mephenytoin); conditions: read-out: IC50 against CYP2C19; pooled HLMs 0.2 mg/mL; substrate (S)-mephenytoin 100 μM; 10 min; 95% CI in parentheses
Sequence of CYP2C19 (P33261 whole entry): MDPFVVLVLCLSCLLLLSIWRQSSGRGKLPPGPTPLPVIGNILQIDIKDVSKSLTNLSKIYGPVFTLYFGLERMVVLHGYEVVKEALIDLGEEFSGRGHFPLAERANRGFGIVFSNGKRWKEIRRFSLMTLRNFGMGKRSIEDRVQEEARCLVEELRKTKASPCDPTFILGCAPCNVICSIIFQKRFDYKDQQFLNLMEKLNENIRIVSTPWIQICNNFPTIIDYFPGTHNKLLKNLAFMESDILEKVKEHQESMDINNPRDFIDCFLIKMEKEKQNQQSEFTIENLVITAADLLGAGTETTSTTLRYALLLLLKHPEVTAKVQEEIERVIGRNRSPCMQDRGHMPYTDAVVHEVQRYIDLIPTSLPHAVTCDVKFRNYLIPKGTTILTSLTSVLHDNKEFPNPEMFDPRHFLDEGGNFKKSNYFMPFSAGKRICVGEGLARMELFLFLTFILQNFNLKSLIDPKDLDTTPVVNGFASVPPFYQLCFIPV

CYP2B6 [4] = molecular target: T2, CYP2B6; test: Metabolism-dependent inhibition assay (IC50 shift) in pooled HLMs, CYP2B6; conditions: substrate bupropion
Method: (§1) The experiments for determining metabolism-dependent inhibition were conducted utilizing a non-dilution method. […] The pre-incubation was initiated by the addition of 1 mM NADPH and incubation for 30 min. Subsequently, final incubation was performed with the addition of a substrate (5 μM coumarin or 50 μM bupropion) in the presence of NADPH for 10 min; the total volume of the mixture was 200 μL. […] Mixtures were subjected to centrifugation at 3000× g for 20 min at 4 °C, and the supernatants were analyzed using LC-MS/MS. The experiment was performed using three separate samples.
(§2) The CYP-mediated activities in the presence of test substances were expressed as percentages of the corresponding control values.

CYP2A6 [5] = molecular target: T1, CYP2A6; test: Determination of CYP inhibition mode and Ki in pooled HLMs, CYP2A6-mediated coumarin 7-hydroxylation
Method: (§3) A 5 min pre-incubation was performed prior to initiating reactions with the addition of 1 mM NADPH. After incubation at 37 °C for 10 min, 200 μL of ice-cold acetonitrile containing 100 nM carbamazepine as an internal standard was added to terminate the reaction. The samples were agitated and centrifuged at 4 °C for 20 min at 3000× g. The supernatants were transferred to a 96-well plate for LC-MS/MS analysis. The experiment was performed using three separate samples.
(§4) Data acquired from the evaluation of enzyme inhibition using various concentrations of substrates and test compounds were fit to different models (competitive, noncompetitive, uncompetitive, or mixed), and inhibition constant (Ki) and goodness of fit values were obtained using GraphPad Prism. The appropriate type of inhibition was selected based on statistical goodness of fit tests including Akaike’s information criterion (AICc) with correction for small sample size and the standard deviation of the residuals (Sy.x).

CYP2B6 [6] = molecular target: T2, CYP2B6; test: Determination of CYP inhibition mode and Ki in pooled HLMs, CYP2B6-mediated bupropion hydroxylation
Method: as §3, §4

CYP2A6 [7] = molecular target: T1, CYP2A6; test: Metabolism-dependent inhibition assay (IC50 shift) in pooled HLMs, CYP2A6; conditions: substrate coumarin; for IC50: pooled HLMs, 95% CI in parentheses
Method: as §1, §2

[8] = IC50 without NADPH/IC50 with NADPH
[9] = best fit by AICc and Sy.x, Dixon plots

In the case of C=C(C)[C@H]1CC=C(C(=O)O)CC1 [(−)-PA, (−)-perillic acid], the “Inhibition of activities of CYP isoforms (words)” value [1] is reported as “did not significantly inhibit” and the “Inhibition of activities of CYP isoforms (words)” value ([1]; listed as PA) is reported as “not significantly inhibited”.
For C=C(C)C1CC=C(C=O)CC1 (single isomer, unassigned; (+)) [(+)-PAH, (+)-perillaldehyde], the IC50 (CYP2A6 [2]) was 10.6 µM, the IC50 (CYP2B6 [3]) was 29 µM and the IC50 (CYP2C19) was 50.5 µM.
In the case of N[C@@H]1C[C@H]1c1ccccc1 (racemic) [Tranylcypromine, reference compound], the IC50 (CYP2A6 [2]) is reported as 0.5 µM.
C=C(C)C1CC=C(C=O)CC1 (single isomer, unassigned; (-)) [(−)-PAH, (−)-Perillaldehyde] was tested, and the “IC50 fold-shift, CYP2B6” value (CYP2B6 [4]; [8]) was 0.78, the IC50 (CYP2B6 [4]; read-out: IC50, pre-incubation without NADPH, CYP2B6, pooled HLMs, 30 min pre-incubation without NADPH, 95% CI in parentheses) was 11.9 µM and the “Type of inhibition, CYP2A6” value (CYP2A6 [5]; [9]) was “mixed inhibition model”. For the same compound, the “Ki, CYP2A6, uncompetitive model (not selected)” value (CYP2A6 [5]; pooled HLMs, coumarin, 95% CI in parentheses) was 2.40 (2.04–2.82) μM, the Ki (CYP2A6 [5]; read-out: Ki, CYP2A6, mixed inhibition model (selected best fit), pooled HLMs, coumarin 1.25–10 μM, 95% CI in parentheses) was 1.72 µM and the IC50 (CYP2A6 [2]) was 3.64 µM. The “Type of inhibition, CYP2B6” value (CYP2B6 [6]; [9]) was “mixed inhibition model”, the “Ki, CYP2B6, uncompetitive model (not selected)” value (CYP2B6 [6]; pooled HLMs, bupropion, 95% CI in parentheses) was 2.77 (2.31–3.28) μM and the Ki (CYP2B6 [6]; read-out: Ki, CYP2B6, mixed inhibition model (selected best fit), pooled HLMs, bupropion 12.5–100 μM, 95% CI in parentheses) was 3.05 µM. The “IC50 fold-shift, CYP2A6” value (CYP2A6 [7]; [8]) was 1.03, the IC50 (CYP2A6 [7]; read-out: IC50, pre-incubation with NADPH, CYP2A6, 30 min pre-incubation with NADPH) was 7.99 µM and the IC50 (CYP2A6 [7]; read-out: IC50, pre-incubation without NADPH, CYP2A6, 30 min pre-incubation without NADPH) was 8.25 µM. The IC50 (CYP2B6 [3]) was 6.15 µM and the IC50 (CYP2C19) was 18 µM.
Compound COc1ccc2[nH]c([S+]([O-])Cc3ncc(C)c(OC)c3C)nc2c1 (stereo not drawn) [Omeprazole, reference compound] has an IC50 (CYP2C19) of 5.4 µM.
